Assay results as given in patent US5977133A, “Pyridone antibiotic with improved safety profile” (priority 1998, dated 1999).
Counter-ions that a name gives are not always drawn.

What was measured:
Format in all cases: cell-based
E. faecium (VanS) = assay: In vitro MIC, agar dilution; conditions: Enterococcus faecium
E. faecium (CiproS) = assay: In vitro MIC, agar dilution; conditions: Enterococcus faecium
M. catarrhalis = assay: In vitro MIC, agar dilution; conditions: Moraxella catarrhalis
P. aeruginosa (CiproR) = assay: In vitro MIC, agar dilution; conditions: Pseudomonas aeruginosa
Providencia spp. = assay: In vitro MIC, agar dilution; conditions: Providencia
S. epidermidis (CiproS) = assay: In vitro MIC, agar dilution; conditions: Staphylococcus epidermidis
C. perfringens = assay: microbe, parasite or virus in culture; conditions: Clostridium perfringens
N. gonorrhoeae = assay: In vitro MIC, agar dilution; conditions: Neisseria gonorrhoeae
P. aeruginosa (CiproS) = assay: In vitro MIC, agar dilution; conditions: Pseudomonas aeruginosa
S. pyogenes = assay: In vitro MIC, agar dilution; conditions: Streptococcus pyogenes
S. pneumoniae (PenS) = assay: In vitro MIC, agar dilution; conditions: Streptococcus pneumoniae
C. freundii = assay: In vitro MIC, agar dilution; conditions: Citrobacter freundii
H. influenzae = assay: In vitro MIC, agar dilution; conditions: Haemophilus influenzae
P. mirabilis = assay: In vitro MIC, agar dilution; conditions: Proteus mirabilis
S. pneumoniae (PenR) = assay: In vitro MIC, agar dilution; conditions: Streptococcus pneumoniae
Enterococcus spp. (VanR) = assay: In vitro MIC, agar dilution; conditions: Enterococcus
Shigella spp. = assay: microbe, parasite or virus in culture; conditions: read-out: MIC Range
Enterobacter spp. = assay: In vitro MIC, agar dilution; conditions: Enterobacter
E. faecalis (VanS) = assay: In vitro MIC, agar dilution; conditions: Enterococcus faecalis
E. faecium (CiproR) = assay: In vitro MIC, agar dilution; conditions: Enterococcus faecium, read-out: MIC Range
S. epidermidis (CiproR) = assay: In vitro MIC, agar dilution; conditions: Staphylococcus epidermidis
C. difficile = assay: In vitro MIC, agar dilution; conditions: Clostridioides difficile
S. aureus (CiproS) = assay: In vitro MIC, agar dilution; conditions: Staphylococcus aureus
M. avium = assay: In vitro MIC, agar dilution; conditions: Mycobacterium avium
S. pneumoniae (CiproR) = assay: In vitro MIC, agar dilution; conditions: Streptococcus pneumoniae, read-out: MIC Range
Salmonella spp. = assay: In vitro MIC, agar dilution; conditions: 23 isolates
Experimental: (§1) Each plate was inoculated with 1:100 (or 1:10 for slow-growing strains, primarily Micrococcus and Streptococcus) dilutions of up to 32 different microorganisms, using a Steers replicator block calibrated to deliver approximately 10^4 colony forming units (CFU's). The inoculated plates were incubated at from about 35° C. to about 37 ° C. for approximately 20-24 hours. In addition, a control plate using BHI agar containing no test compound was prepared and incubated at the beginning and at the end of each test. The quinolone antibacterial ciprofloxacin was used as a control ("Cntl").
(§2) The numbers below the microorganism species indicate the nunbers of isolates tested. […] The MIC is defined as the lowest concentration of test compound yielding no growth (a slight haze or sparsely isolated colonies at the inoculum spot) as compared to the growth control containing no test compound.

E. coli = assay: In vitro MIC, agar dilution; conditions: Escherichia coli, 25 isolates
Experimental: as §1, §2

H. pylori = assay: In vitro MIC, agar dilution; conditions: Helicobacter pylori
Klebsiella spp. = assay: In vitro MIC, agar dilution; conditions: Klebsiella
B. fragilis = assay: In vitro MIC, agar dilution; conditions: Bacteroides fragilis
S. aureus (CiproR) = assay: In vitro MIC, agar dilution; conditions: Staphylococcus aureus
Legionella spp. = assay: microbe, parasite or virus in culture; conditions: Legionella
M. pneumoniae = assay: In vitro MIC, agar dilution; conditions: Mycoplasmoides pneumoniae, read-out: MIC Range

## Cc1c(N2C[C@@H]3CCCN[C@@H]3C2)c(F)cn2c(=O)c(C(=O)O)cc(C3CC3)c12 [Example 4, 1-cyclopropyl-8-(S,S-2,8-diaza-8-bicyclo[4.3.0]nonyl)-7-fluoro-4H-9-methyl-4-oxo-quinolizine-3-carboxylic acid hydrochloride]
E. faecium (VanS)
  MIC50: 0.5 µg/mL
  MIC90: 1 µg/mL
E. faecium (VanS); read-out: MIC Range
  MIC: 0.12 to 1 µg/mL
E. faecium (CiproS)
  MIC50: 0.5 µg/mL
  MIC90: 1 µg/mL
E. faecium (CiproS); read-out: MIC Range
  MIC: 0.25 to 1 µg/mL
M. catarrhalis
  MIC50: 0.015 µg/mL
  MIC90: 0.03 µg/mL
M. catarrhalis; read-out: MIC Range
  MIC: 0.015 to 0.03 µg/mL
P. aeruginosa (CiproR)
  MIC50: 8 µg/mL
  MIC90: 16 µg/mL
P. aeruginosa (CiproR); read-out: MIC Range
  MIC: 4 to 64 µg/mL
Providencia spp.
  MIC50: 0.03 µg/mL
  MIC90: 0.12 µg/mL
Providencia spp.; read-out: MIC Range
  MIC: 0.008 to 0.25 µg/mL
S. epidermidis (CiproS)
  MIC50: 0.03 µg/mL
  MIC90: 0.03 µg/mL
S. epidermidis (CiproS); read-out: MIC Range
  MIC: 0.015 to 0.03 µg/mL
C. perfringens
  MIC50: 0.5 µg/mL
  MIC90: 1 µg/mL
C. perfringens; read-out: MIC Range
  MIC: 0.25 to 1 µg/mL
N. gonorrhoeae
  MIC50: 0.002 µg/mL
  MIC90: 0.015 µg/mL
N. gonorrhoeae; read-out: MIC Range
  MIC: 0.002 to 0.015 µg/mL
P. aeruginosa (CiproS)
  MIC50: 0.12 µg/mL
  MIC90: 1 µg/mL
P. aeruginosa (CiproS); read-out: MIC Range
  MIC: 0.03 to 2 µg/mL
S. pyogenes
  MIC50: 0.06 µg/mL
  MIC90: 0.06 µg/mL
S. pyogenes; read-out: MIC Range
  MIC: 0.03 to 0.06 µg/mL
S. pneumoniae (PenS)
  MIC50: 0.06 µg/mL
  MIC90: 0.12 µg/mL
S. pneumoniae (PenS); read-out: MIC Range
  MIC: 0.06 to 0.12 µg/mL
C. freundii
  MIC50: 0.03 µg/mL
  MIC90: 0.25 µg/mL
C. freundii; read-out: MIC Range
  MIC: 0.015 to 0.25 µg/mL
H. influenzae
  MIC50: 0.015 µg/mL
  MIC90: 0.015 µg/mL
H. influenzae; read-out: MIC Range
  MIC: 0.004 to 0.015 µg/mL
P. mirabilis
  MIC50: 0.06 µg/mL
  MIC90: 0.12 µg/mL
P. mirabilis; read-out: MIC Range
  MIC: 0.03 to 0.12 µg/mL
S. pneumoniae (PenR)
  MIC50: 0.03 µg/mL
  MIC90: 0.03 µg/mL
S. pneumoniae (PenR); read-out: MIC Range
  MIC: 0.008 to 0.03 µg/mL
Enterococcus spp. (VanR)
  MIC50: 1 µg/mL
  MIC90: 1 µg/mL
Enterococcus spp. (VanR); read-out: MIC Range
  MIC: 0.06 to 4 µg/mL
Shigella spp.
  MIC: 0.004 to 0.015 µg/mL
Enterobacter spp.
  MIC50: 0.03 µg/mL
  MIC90: 0.12 µg/mL
Enterobacter spp.; read-out: MIC Range
  MIC: 0.015 to 0.12 µg/mL
E. faecalis (VanS)
  MIC50: 0.12 µg/mL
  MIC90: 0.25 µg/mL
E. faecalis (VanS); read-out: MIC Range
  MIC: 0.12 to 0.25 µg/mL
E. faecium (CiproR)
  MIC: 0.5 to 4 µg/mL
S. epidermidis (CiproR)
  MIC50: 0.25 µg/mL
  MIC90: 0.5 µg/mL
S. epidermidis (CiproR); read-out: MIC Range
  MIC: 0.12 to 4 µg/mL
C. difficile
  MIC50: 0.25 µg/mL
  MIC90: 0.25 µg/mL
C. difficile; read-out: MIC Range
  MIC: 0.03 to 0.25 µg/mL
S. aureus (CiproS)
  MIC50: 0.002 µg/mL
  MIC90: 0.002 µg/mL
S. aureus (CiproS); read-out: MIC Range
  MIC: 0.0005 to 0.002 µg/mL
M. avium
  MIC50: 0.25 µg/mL
  MIC90: 1 µg/mL
M. avium; read-out: MIC Range
  MIC: 0.25 to 4 µg/mL
S. pneumoniae (CiproR)
  MIC: 0.12 to 0.25 µg/mL
Salmonella spp.
  MIC: 0.004 to 0.12 µg/mL
Salmonella spp.; read-out: MIC50
  MIC50: 0.03 µg/mL
Salmonella spp.; read-out: MIC90
  MIC90: 0.06 µg/mL
E. coli
  MIC: ≤ 0.008 µg/mL
E. coli; read-out: MIC50
  MIC50: ≤ 0.008 µg/mL
E. coli; read-out: MIC90
  MIC90: ≤ 0.008 µg/mL
H. pylori
  MIC50: 0.12 µg/mL
  MIC90: 0.25 µg/mL
H. pylori; read-out: MIC Range
  MIC: 0.06 to 0.25 µg/mL
Klebsiella spp.
  MIC50: 0.06 µg/mL
  MIC90: 0.06 µg/mL
Klebsiella spp.; read-out: MIC Range
  MIC: 0.008 to 0.25 µg/mL
B. fragilis
  MIC50: 0.25 µg/mL
  MIC90: 0.25 µg/mL
B. fragilis; read-out: MIC Range
  MIC: 0.12 to 0.5 µg/mL
S. aureus (CiproR)
  MIC50: 0.06 µg/mL
  MIC90: 0.25 µg/mL
S. aureus (CiproR); read-out: MIC Range
  MIC: 0.008 to 0.5 µg/mL
Legionella spp.
  MIC50: 0.25 µg/mL
  MIC90: 0.25 µg/mL
Legionella spp.; read-out: MIC Range
  MIC: 0.25 to 0.5 µg/mL
M. pneumoniae
  MIC: 0.015 to 0.03 µg/mL
